From ChEMBL document CHEMBL1649447, “Colorimetric high-throughput screen for detection of heme crystallization inhibitors” (Antimicrob Agents Chemother, 2009)

Columns and labels:
Heme [1] = assay: Inhibition of heme crystallization by hemichrome inhibition of beta-hematin assay; assay type: functional
Heme [2] = assay: Inhibition of heme crystallization by cell-free heme crystallization screen assay
Plasmodium falciparum = assay: Antimicrobial activity against Plasmodium falciparum 3D7 by DAPI growth inhibition assay; assay type: functional, organism-based

Row | SMILES | IC50 (Heme [1]) [equiv] | IC50 (Heme [2]) [µM] | IC50 (Plasmodium falciparum) [µM]
1 | CCN(CC)CCCC(C)Nc1ccnc2cc(Cl)ccc12 (configuration not stated) [CHLOROQUINE] | 1.91 | 374 | –
2 | CCN(CC)Cc1cc(Nc2ccnc3cc(Cl)ccc23)ccc1O.Cl | 1.45 | 67 | 0.0068
3 | OC(c1cc(C(F)(F)F)nc2c(C(F)(F)F)cccc12)C1CCCCN1 (configuration not stated) [MEFLOQUINE] | 2.9 | 476 | –
